{"source": "ChEMBL document CHEMBL3045223", "about": "“Synthesis, nematicidal and antimicrobial properties of Bis-[4-methoxy-3-[3-(4-fluorophenyl)-6-(4-methylphenyl)-2(aryl)-tetrahydro-2H-pyrazolo[3,4-d]thiazol-5-yl]phenyl]methanes” (2009)"}
{"system": "Klebsiella aerogenes", "assay": "Antibacterial activity against Enterobacter aerogenes MTCC 39 assessed as inhibition zones at 300 ug/disk at 37 degC for 24 hr", "format": "functional", "details": "MTCC 39, 24 h, read-out: IZ", "units": {"zone of inhibition at 300 µg/disc": "mm"}}
{"smiles": "COc1ccc(Cc2ccc(OC)c(C3SC4C(=NN(C)C4c4ccc(F)cc4)N3c3ccc(C)cc3)c2)cc1C1SC2C(=NN(C)C2c2ccc(F)cc2)N1c1ccc(C)cc1", "note": "(configuration not stated)", "zone of inhibition at 300 µg/disc": 20}
{"system": "Trichophyton mentagrophytes", "assay": "Antifungal activity against Trichophyton mentagrophytes IFO 40996 assessed as growth inhibition at 37 degC for 48 hr", "format": "functional", "details": "IFO 40996, 48 h", "units": {"MBC": "µg/mL", "MIC": "µg/mL"}}
{"smiles": "COc1ccc(Cc2ccc(OC)c(C3SC4C(=NN(C)C4c4ccc(F)cc4)N3c3ccc(C)cc3)c2)cc1C1SC2C(=NN(C)C2c2ccc(F)cc2)N1c1ccc(C)cc1", "note": "(configuration not stated)", "MBC": 12.5, "MIC": 6.25}
{"system": "Pseudomonas aeruginosa", "assay": "Antibacterial activity against Pseudomonas aeruginosa MTCC 741 assessed as inhibition zones at 300 ug/disk at 37 degC for 24 hr", "format": "functional", "details": "MTCC 741, 24 h, read-out: IZ", "units": {"zone of inhibition at 300 µg/disc": "mm"}}
{"smiles": "COc1ccc(Cc2ccc(OC)c(C3SC4C(=NN(C)C4c4ccc(F)cc4)N3c3ccc(C)cc3)c2)cc1C1SC2C(=NN(C)C2c2ccc(F)cc2)N1c1ccc(C)cc1", "note": "(configuration not stated)", "zone of inhibition at 300 µg/disc": 14}
{"system": "Trichophyton rubrum", "assay": "Antifungal activity against Trichophyton rubrum IFO 9185 assessed as growth inhibition at 300 ug/disk at 37 degC for 48 hr", "format": "functional", "details": "IFO 9185, 48 h, read-out: IZ", "units": {"zone of inhibition at 300 µg/disc": "mm"}}
{"smiles": "COc1ccc(Cc2ccc(OC)c(C3SC4C(=NN(C)C4c4ccc(F)cc4)N3c3ccc(C)cc3)c2)cc1C1SC2C(=NN(C)C2c2ccc(F)cc2)N1c1ccc(C)cc1", "note": "(configuration not stated)", "zone of inhibition at 300 µg/disc": 20}
{"system": "Lysinibacillus sphaericus", "assay": "Antibacterial activity against Lysinibacillus sphaericus MTCC 11 assessed as growth arrest at 37 degC for 24 hr", "format": "functional", "details": "MTCC 11, 24 h", "units": {"MBC": "µg/mL", "MIC": "µg/mL"}}
{"smiles": "COc1ccc(Cc2ccc(OC)c(C3SC4C(=NN(C)C4c4ccc(F)cc4)N3c3ccc(C)cc3)c2)cc1C1SC2C(=NN(C)C2c2ccc(F)cc2)N1c1ccc(C)cc1", "note": "(configuration not stated)", "MBC": 25.5, "MIC": 12.5}
{"system": "Chromobacterium violaceum", "assay": "Antibacterial activity against Chromobacterium violaceum MTCC 2656 assessed as inhibition zones at 300 ug/disk at 37 degC for 24 hr", "format": "functional", "details": "MTCC 2656, 24 h, read-out: IZ", "units": {"zone of inhibition at 300 µg/disc": "mm"}}
{"smiles": "COc1ccc(Cc2ccc(OC)c(C3SC4C(=NN(C)C4c4ccc(F)cc4)N3c3ccc(C)cc3)c2)cc1C1SC2C(=NN(C)C2c2ccc(F)cc2)N1c1ccc(C)cc1", "note": "(configuration not stated)", "zone of inhibition at 300 µg/disc": 18}
{"system": "Pseudomonas aeruginosa", "assay": "Antibacterial activity against Pseudomonas aeruginosa MTCC 741 assessed as growth arrest at 37 degC for 24 hr", "format": "functional", "details": "MTCC 741, 24 h", "units": {"MBC": "µg/mL", "MIC": "µg/mL"}}
{"smiles": "COc1ccc(Cc2ccc(OC)c(C3SC4C(=NN(C)C4c4ccc(F)cc4)N3c3ccc(C)cc3)c2)cc1C1SC2C(=NN(C)C2c2ccc(F)cc2)N1c1ccc(C)cc1", "note": "(configuration not stated)", "MBC": 12.5, "MIC": 12.5}
{"system": "Candida albicans", "assay": "Antifungal activity against Candida albicans ATCC 10231 assessed as growth inhibition at 37 degC for 48 hr", "format": "functional", "details": "ATCC 10231, 48 h", "units": {"MBC": "µg/mL", "MIC": "µg/mL"}}
{"smiles": "COc1ccc(Cc2ccc(OC)c(C3SC4C(=NN(C)C4c4ccc(F)cc4)N3c3ccc(C)cc3)c2)cc1C1SC2C(=NN(C)C2c2ccc(F)cc2)N1c1ccc(C)cc1", "note": "(configuration not stated)", "MBC": 3.12, "MIC": 3.12}
{"system": "Bacillus subtilis", "assay": "Antibacterial activity against Bacillus subtilis MTCC 441 assessed as inhibition zones at 300 ug/disk at 37 degC for 24 hr", "format": "functional", "details": "MTCC 441, 24 h, read-out: IZ", "units": {"zone of inhibition at 300 µg/disc": "mm"}}
{"smiles": "COc1ccc(Cc2ccc(OC)c(C3SC4C(=NN(C)C4c4ccc(F)cc4)N3c3ccc(C)cc3)c2)cc1C1SC2C(=NN(C)C2c2ccc(F)cc2)N1c1ccc(C)cc1", "note": "(configuration not stated)", "zone of inhibition at 300 µg/disc": 13}
{"system": "Candida albicans", "assay": "Antifungal activity against Candida albicans ATCC 10231 assessed as growth inhibition at 300 ug/disk at 37 degC for 48 hr", "format": "functional", "details": "ATCC 10231, 48 h, read-out: IZ", "units": {"zone of inhibition at 300 µg/disc": "mm"}}
{"smiles": "COc1ccc(Cc2ccc(OC)c(C3SC4C(=NN(C)C4c4ccc(F)cc4)N3c3ccc(C)cc3)c2)cc1C1SC2C(=NN(C)C2c2ccc(F)cc2)N1c1ccc(C)cc1", "note": "(configuration not stated)", "zone of inhibition at 300 µg/disc": 20}
{"system": "Trichophyton rubrum", "assay": "Antifungal activity against Trichophyton rubrum IFO 9185 assessed as growth inhibition at 37 degC for 48 hr", "format": "functional", "details": "IFO 9185, 48 h", "units": {"MBC": "µg/mL", "MIC": "µg/mL"}}
{"smiles": "COc1ccc(Cc2ccc(OC)c(C3SC4C(=NN(C)C4c4ccc(F)cc4)N3c3ccc(C)cc3)c2)cc1C1SC2C(=NN(C)C2c2ccc(F)cc2)N1c1ccc(C)cc1", "note": "(configuration not stated)", "MBC": 6.25, "MIC": 3.12}
{"system": "Staphylococcus aureus", "assay": "Antibacterial activity against Staphylococcus aureus MTCC 96 assessed as growth arrest at 37 degC for 24 hr", "format": "functional", "details": "MTCC 96, 24 h", "units": {"MBC": "µg/mL", "MIC": "µg/mL"}}
{"smiles": "COc1ccc(Cc2ccc(OC)c(C3SC4C(=NN(C)C4c4ccc(F)cc4)N3c3ccc(C)cc3)c2)cc1C1SC2C(=NN(C)C2c2ccc(F)cc2)N1c1ccc(C)cc1", "note": "(configuration not stated)", "MBC": 25, "MIC": 12.5}
{"system": "Aspergillus fumigatus", "assay": "Antifungal activity against Aspergillus fumigatus HIC 6094 assessed as growth inhibition at 37 degC for 48 hr", "format": "functional", "details": "HIC 6094, 48 h", "units": {"MBC": "µg/mL", "MIC": "µg/mL"}}
{"smiles": "COc1ccc(Cc2ccc(OC)c(C3SC4C(=NN(C)C4c4ccc(F)cc4)N3c3ccc(C)cc3)c2)cc1C1SC2C(=NN(C)C2c2ccc(F)cc2)N1c1ccc(C)cc1", "note": "(configuration not stated)", "MBC": 6.25, "MIC": 3.12}
{"system": "Lysinibacillus sphaericus", "assay": "Antibacterial activity against Lysinibacillus sphaericus MTCC 11 assessed as inhibition zones at 300 ug/disk at 37 degC for 24 hr", "format": "functional", "details": "MTCC 11, 24 h, read-out: IZ", "units": {"zone of inhibition at 300 µg/disc": "mm"}}
{"smiles": "COc1ccc(Cc2ccc(OC)c(C3SC4C(=NN(C)C4c4ccc(F)cc4)N3c3ccc(C)cc3)c2)cc1C1SC2C(=NN(C)C2c2ccc(F)cc2)N1c1ccc(C)cc1", "note": "(configuration not stated)", "zone of inhibition at 300 µg/disc": 13}
{"system": "Klebsiella aerogenes", "assay": "Antibacterial activity against Enterobacter aerogenes MTCC 39 assessed as growth arrest at 37 degC for 24 hr", "format": "functional", "details": "MTCC 39, 24 h", "units": {"MBC": "µg/mL", "MIC": "µg/mL"}}
{"smiles": "COc1ccc(Cc2ccc(OC)c(C3SC4C(=NN(C)C4c4ccc(F)cc4)N3c3ccc(C)cc3)c2)cc1C1SC2C(=NN(C)C2c2ccc(F)cc2)N1c1ccc(C)cc1", "note": "(configuration not stated)", "MBC": 12.5, "MIC": 6.25}
{"system": "Trichophyton mentagrophytes", "assay": "Antifungal activity against Trichophyton mentagrophytes IFO 40996 assessed as growth inhibition at 300 ug/disc at 37 degC for 48 hr", "format": "functional", "details": "IFO 40996, 48 h, read-out: IZ", "units": {"zone of inhibition at 300 µg/disc": "mm"}}
{"smiles": "COc1ccc(Cc2ccc(OC)c(C3SC4C(=NN(C)C4c4ccc(F)cc4)N3c3ccc(C)cc3)c2)cc1C1SC2C(=NN(C)C2c2ccc(F)cc2)N1c1ccc(C)cc1", "note": "(configuration not stated)", "zone of inhibition at 300 µg/disc": 18}
{"system": "Aspergillus fumigatus", "assay": "Antifungal activity against Aspergillus fumigatus HIC 6094 assessed as growth inhibition at 300 ug/disc at 37 degC for 48 hr", "format": "functional", "details": "HIC 6094, 48 h, read-out: IZ", "units": {"zone of inhibition at 300 µg/disc": "mm"}}
{"smiles": "COc1ccc(Cc2ccc(OC)c(C3SC4C(=NN(C)C4c4ccc(F)cc4)N3c3ccc(C)cc3)c2)cc1C1SC2C(=NN(C)C2c2ccc(F)cc2)N1c1ccc(C)cc1", "note": "(configuration not stated)", "zone of inhibition at 300 µg/disc": 20}
{"system": "Staphylococcus aureus", "assay": "Antibacterial activity against Staphylococcus aureus MTCC 96 assessed as inhibition zones at 300 ug/disc at 37 degC for 24 hr", "format": "functional", "details": "MTCC 96, 24 h, read-out: IZ", "units": {"zone of inhibition at 300 µg/disc": "mm"}}
{"smiles": "COc1ccc(Cc2ccc(OC)c(C3SC4C(=NN(C)C4c4ccc(F)cc4)N3c3ccc(C)cc3)c2)cc1C1SC2C(=NN(C)C2c2ccc(F)cc2)N1c1ccc(C)cc1", "note": "(configuration not stated)", "zone of inhibition at 300 µg/disc": 25}
{"system": "Bacillus subtilis", "assay": "Antibacterial activity against Bacillus subtilis MTCC 441 assessed as growth arrest at 37 degC for 24 hr", "format": "functional", "details": "MTCC 441, 24 h", "units": {"MBC": "µg/mL", "MIC": "µg/mL"}}
{"smiles": "COc1ccc(Cc2ccc(OC)c(C3SC4C(=NN(C)C4c4ccc(F)cc4)N3c3ccc(C)cc3)c2)cc1C1SC2C(=NN(C)C2c2ccc(F)cc2)N1c1ccc(C)cc1", "note": "(configuration not stated)", "MBC": 50, "MIC": 6.25}
{"system": "Caenorhabditis elegans", "assay": "Nematicidal activity against Caenorhabditis elegans assessed as immobility", "format": "functional", "details": "read-out: LD50 (the source's name)", "units": {"LC50": "µg/mL"}}
{"smiles": "COc1ccc(Cc2ccc(OC)c(C3SC4C(=NN(C)C4c4ccc(F)cc4)N3c3ccc(C)cc3)c2)cc1C1SC2C(=NN(C)C2c2ccc(F)cc2)N1c1ccc(C)cc1", "note": "(configuration not stated)", "LC50": 200}
{"system": "Chromobacterium violaceum", "assay": "Antibacterial activity against Chromobacterium violaceum MTCC 2656 assessed as growth arrest at 37 degC for 24 hr", "format": "functional", "details": "MTCC 2656, 24 h", "units": {"MBC": "µg/mL", "MIC": "µg/mL"}}
{"smiles": "COc1ccc(Cc2ccc(OC)c(C3SC4C(=NN(C)C4c4ccc(F)cc4)N3c3ccc(C)cc3)c2)cc1C1SC2C(=NN(C)C2c2ccc(F)cc2)N1c1ccc(C)cc1", "note": "(configuration not stated)", "MBC": 12.5, "MIC": 6.25}
{"system": "Ditylenchus myceliophagus", "assay": "Nematicidal activity against Ditylenchus myceliophagus assessed as immobility", "format": "functional", "details": "read-out: LD50 (the source's name)", "units": {"LC50": "µg/mL"}}
{"smiles": "COc1ccc(Cc2ccc(OC)c(C3SC4C(=NN(C)C4c4ccc(F)cc4)N3c3ccc(C)cc3)c2)cc1C1SC2C(=NN(C)C2c2ccc(F)cc2)N1c1ccc(C)cc1", "note": "(configuration not stated)", "LC50": 160}
